Laboratory results as given in publication PMC12311729, “Probing the Mechanism of L‑DOPA 2,3-Dioxygenase Using Synthetic Derivatives of 3,4-Dihydroxyhydrocinnamic Acid” (ACS Omega, 2025).
“Also recorded” adds a separate entry of the source.

How the values were obtained:
[1] = molecular target: L-DOPA 2,3-dioxygenase from S. hygroscopicus jingganensis (ShjDDO) (Streptomyces hygroscopicus, UniProt H2JL11); assay: UV-visible steady-state assay of L-DOPA 2,3-dioxygenase (ShjDDO); type: biochemical; conditions: for activity / turnover as substrate: ShjDDO, aerobic reaction observed by UV–visible spectroscopy; for kSP, O2 (μM^-1 min^-1) at pH 7.5 relative to L-DOPA x 100 for ShjDDO: percentage of the value for L-DOPA
Protocol: (§1) Purified, reconstituted L-DOPA 2,3-dioxygenases were assessed for activity by monitoring the cleavage of catecholic substrates using UV–visible spectroscopy. 3,4-Dihydroxyhydrocinnamic acid (DHHCA, 3) was purchased from Sigma-Aldrich. 6-CyanoDHHCA (5) and 6-bromoDHHCA (4) were synthesized as described above.
(§2) Molecular oxygen (AirGas) was bubbled directly into the reaction buffer through a glass-bonded silica gas diffuser (Bubblemac Industries, Inc.) or as a gas mixture blended with air (AirGas). Solutions were bubbled with oxygen for several minutes prior to use and for the duration of the experiment. To determine the K M for oxygen (i.e., K MO2), L-DOPA 2,3-dioxygenases (0.25–4.0 μM) were reacted with a saturating concentration of the catecholic substrate DHHCA/6-X-DHHCA derivatives (2–10× the K M sufficient to achieve k cat) and various oxygen concentrations (21–100% or 270–1300 μM at 22 °C). The concentration of oxygen was varied by changing the percentage of oxygen in the blend using a galvanic oxygen sensor and oxygen monitor (AirGas) and then bubbling solutions, as described above. Molecular oxygen percentages were converted to molar concentrations using a reference temperature of 22 °C. The reaction of L-DOPA 2,3-dioxygenases with DHHCA/6-X-DHHCA derivatives as a function of oxygen concentration was followed by the appearance of the steady-state cleavage product by using UV–visible spectroscopy.
(§3) The extinction coefficients for steady-state cleavage products of DHHCA and synthetic 6-X-DHHCA derivatives were determined by reacting various concentrations of DHHCA/6-X-DHHCA derivatives at 22 °C with a 10-fold stoichiometric excess of enzyme (quantified by Fe^II–see Reconstitution) in 50 mM HEPES buffer with 154 mM NaCl at pH 7.5, bubbled with 100% oxygen to a final concentration of 780–910 μM, depending on the volume of oxygenated buffer that comprised the reaction (60–70%). Substrate solutions were prepared from authentic synthetic standards using an analytical balance, and reactions were run to completion as assessed by the appearance of the steady-state product. The λmax and extinction coefficients of DHHCA, 6-cyanoDHHCA, and 6-bromoDHHCA were determined herein as ε380 = 40 740 ± 820 M^–1cm^–1, ε385 = 33 256 ± 484 M^–1cm^–1, and ε380 = 35 282 ± 1190 M^–1cm^–1, respectively (Figure S52).
(§4) Steady-state kinetic data were obtained through a UV–visible spectroscopic assay. Initial rates were obtained from the slopes of the linear regions of the progress curves and plotted versus substrate concentration to yield a hyperbola, which was analyzed using the Michaelis–Menten expression and nonlinear least-squares fitting (NLSF) with Origin 6.0 (Microcal). Two possible derivations of the Michaelis–Menten expression were used: 1) the traditional expression y = k cat × x/(K M + x), where y is Rate/E 0 or the rate of product formation (μM/min) divided by the starting enzyme concentration (μM), x is substrate concentration (μM) and k SP (also known as k cat × K M ^–1)–that is, the second-order rate constant of enzyme and substrate–is extracted from the fitted constants; or 2) the alternative derivation that extracts k SP and k cat directly from the fit: y = (k SP × x)/((1 + k SP × x)/k cat), and where y is Rate/E 0 or the rate of product formation (μM/min) divided by the starting enzyme concentration (μM), x is substrate concentration (μM), k SP is equivalent to k cat×K M ^–1, and K M is extracted from k cat/k cat×K M ^–1.

[2] = molecular target: L-DOPA 2,3-dioxygenase from S. lincolnensis (LmbB1) (Streptomyces lincolnensis, UniProt Q54354); assay: UV-visible steady-state assay of L-DOPA 2,3-dioxygenase (LmbB1); type: biochemical; conditions: for activity / turnover as substrate: aerobic reaction observed by UV–visible spectroscopy; for kSP, O2 (μM^-1 min^-1) at pH 7.5 relative to L-DOPA x 100 for LmbB1: percentage of the value for L-DOPA
Protocol: as §1, §2, §3, §4

[3] = Determination of pKa values by spectrophotometric titration; conditions: for pK a value: first catecholic deprotonation, determined spectroscopically from pH 3 to 12.5; for Catecholic pKa value relative to L-DOPA x 100: percentage of the value for L-DOPA
[4] = Cyclic voltammetry (redox potentials on a GCE); type: physicochemical; conditions: for (E p)a Oxidation / (E p)c Reduction / E1/2 / Ipa/Ipc / ΔE p: GCE (d = 2 mm); for E1/2 (mV) at pH 7.4 relative to L-DOPA x 100: percentage of the value for L-DOPA
From the text: Reduction and oxidation potentials were experimentally performed by cyclic voltammetry (CV) at biological pH 7.4, as previously described. All samples were run on a CH Instruments 600E Potentiostat in a one-compartment cell equipped with a three-electrode system arrangement. The three-electrode system included a saturated calomel electrode as the reference electrode, a platinum wire as the auxiliary electrode, and a glassy carbon electrode (GCE, d = 2 mm) as the working electrode. The GCE was polished between each sample scan with an aqueous slurry of alumina powder on a microcloth pad. The electrodes were rinsed with distilled water prior to the next scan. All scans were conducted under nitrogen for oxygen displacement and at room temperature (rt, 25 ± 1 °C). All samples were prepared as close to the scan as possible (approximately 2 min each). Each sample (5 mL) contained 0.1 mM catecholic substrate and 1 μM DMSO in 0.1 M phosphate buffer at a pH of 7.4 or 6.0. […] The cyclic voltammograms for the compounds at both pH 6.0 and 7.4 are available in Figures S40–S51.

[5] = parameters: method as in Biochemistry 2021, 60, 32, 2492–2507; conditions: similarly 6-substituted dopamine; ref Biochemistry 2021, 60, 32, 2492–2507; cited from earlier work
[6] = ShjDDO active site, ratio to DHHCA
[7] = LmbB1 active site, ratio to DHHCA

Sequence of L-DOPA 2,3-dioxygenase from S. hygroscopicus jingganensis (ShjDDO) (H2JL11 1-162): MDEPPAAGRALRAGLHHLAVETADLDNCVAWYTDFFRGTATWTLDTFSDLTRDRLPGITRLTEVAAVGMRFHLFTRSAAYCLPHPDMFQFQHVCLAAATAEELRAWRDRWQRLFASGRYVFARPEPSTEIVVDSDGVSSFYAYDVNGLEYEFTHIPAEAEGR
Sequence of L-DOPA 2,3-dioxygenase from S. lincolnensis (LmbB1) (Q54354 entry or part of it): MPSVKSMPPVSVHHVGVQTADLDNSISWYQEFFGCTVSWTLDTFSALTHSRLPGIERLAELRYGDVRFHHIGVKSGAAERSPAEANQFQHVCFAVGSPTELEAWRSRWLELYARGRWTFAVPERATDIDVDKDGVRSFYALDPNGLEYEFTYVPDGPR

| Structure (SMILES) | activity / turnover as substrate [1] | activity / turnover as substrate ([2]; LmbB1) | pK a value [3] | (E p)a Oxidation ([4]; pH 6.0) | (E p)a Oxidation ([4]; pH 7.4) | pK a value of dopamine counterpart [5] | kSP, O2 (μM^-1 min^-1) at pH 7.5 relative to L-DOPA x 100 for ShjDDO [1] | kSP, O2 (μM^-1 min^-1) at pH 7.5 relative to L-DOPA x 100 for LmbB1 [2] | Catecholic pKa value relative to L-DOPA x 100 [3] | E1/2 (mV) at pH 7.4 relative to L-DOPA x 100 [4] | (E p)c Reduction ([4]; pH 6.0) | E1/2 ([4]; pH 6.0) | Ipa/Ipc ([4]; pH 6.0) | ΔE p ([4]; pH 6.0) | also measured |
| --- | --- | --- | --- | --- | --- | --- | --- | --- | --- | --- | --- | --- | --- | --- | --- |
| O=C(O)CCc1cc(O)c(O)cc1[N+](=O)[O-] [6-NitroDHHCA (6), 3-(4,5-dihydroxy-2-nitrophenyl) propanoic acid] | no turnover was detected; also recorded: did not undergo turnover | no turnover was detected; also recorded: did not undergo turnover | 6.94 ± 0.06 | 444 mV | 288 mV |  |  |  |  |  |  |  |  |  |  |
| NCCc1cc(O)c(O)cc1Br [Compound 6-bromoDA, 6-bromodopamine, reference compound] |  |  |  |  |  | 8.09 ± 0.03 | 9% | 27% | 92% | 77% |  |  |  |  |  |
| N[C@@H](Cc1ccc(O)c(O)c1)C(=O)O [L-DOPA (1), L-3,4-dihydroxyphenylalanine] |  |  | 8.81 ± 0.19 | 362 mV | 315 mV |  | 100% | 100% | 100% |  | 101 mV | 231.5 mV | 5.90 | 261 mV |  |
| O=C(O)CCc1cc(O)c(O)cc1Br [6-BromoDHHCA (4), 3-(2-bromo-4,5-dihydroxyphenyl) propanoic acid] | measurable activity | measurable activity | 8.36 ± 0.07 | 267 mV | 195 mV |  | ~11% | 4% | 95% | 63% | 154 mV | 210.5 mV | 1.43 | 113 mV | kcat at 22 °C and 100% O2 saturation ([1]; S. hygroscopicus jingganensis enzyme, pH 7.5): 1.5 ± 0.1 sec^–1; kSP,O2 × 10^2 at 22 °C ([1]; S. hygroscopicus jingganensis enzyme, values are kSP × 10^2): 15.8 ± 1.0 μM^–1 min^–1; kSP catechol × 10^2 at 22 °C ([1]; S. hygroscopicus jingganensis enzyme, values are kSP × 10^2, kSP = kcat/KM): 9.8 ± 1.9 μM^–1 min^–1; k SP,O2 compared with DHHCA ([1]; ShjDDO active site): equivalent to DHHCA (3) within error; K M weaker than DHHCA [1, 6]: 2 fold; k cat faster than DHHCA [1, 6]: 2 fold; K M tighter than DHHCA ([2]; LmbB1, ratio to DHHCA): 4.5 fold; k SP,O2 slower than DHHCA [2, 7]: more than 5 fold; k cat slower than DHHCA [2, 7]: more than 10 fold; kcat at 22 °C and 100% O2 saturation ([2]; S. lincolnensis enzyme, pH 7.5): 1.6 × 10^–1 ± 4.6 × 10 ^–3 sec^–1; kSP,O2 × 10^2 at 22 °C ([2]; S. lincolnensis enzyme, values are kSP × 10^2): 3.5 ± 0.5 μM^–1 min^–1; kSP catechol × 10^2 at 22 °C ([2]; S. lincolnensis enzyme, values are kSP × 10^2, kSP = kcat/KM): 4.6 ± 0.5 μM^–1 min^–1; (E p)c Reduction ([4]; pH 7.4): 59 mV; E1/2 ([4]; pH 7.4): 127 mV; Ipa/Ipc ([4]; pH 7.4): 1.21; ΔE p ([4]; pH 7.4): 136 mV |
| NCCc1cc(O)c(O)cc1[N+](=O)[O-] [dopamine counterpart of 6-NitroDHHCA (6), 6-nitrodopamine] |  |  |  |  |  | 6.23 ± 0.03 |  |  |  |  |  |  |  |  |  |
